Experiments:
[1] = tested on: human dermal fibroblasts HRO159N; assay: ELISA of secreted pro-collagen I alpha 1, human dermal fibroblasts HRO159N; type: cell-based; details: 48 h, 250 μg
Method: (§1) Compounds reconstitution and stock solution: Prior to treatment, DMSO was diluted in PMS until 0.1% DMSO was made. Each compound was solved in 0.1% DMSO (3: 2.5 mg/mL, 1: 2.5 mg/mL, 10: 1 mg/mL, 5: 1 mg/mL, 7: 0.6 mg/mL, 16: 1 mg/mL 17: 1 mg/mL, 44: 0.6 mg/mL, 36: 1 mg/mL.
(§2) Next the different stock solution with 150 μg and 250 μg of each compound per 1 ml culture solution was made by adding the 0.1% DMSO compound solution in the right amount to culture solution (DMEM with 10% FCS and 1% penicillin-streptomycin).
Three different cell lines were used for the experiments. GM637 is an immortalized cell line originated from human skin fibroblasts, bought in 2001, UKE1 and […] are cell lines originated from human dermal fibroblasts (dog ear) nurtured from patients, between 60 and 80 years old being completely anonymized at the clinic for dermatology, Rostock.
(§3) The cells lines were thawed and were cultured in Dulbecco's modified Eagle's medium (DMEM, Gibcon, USA) supplemented with 10% fetal bovine serum (FBS, Gibco, Germany) and 1% penicillin-streptomycin (PS, Gibco, USA) at 37° C. in a humidified atmosphere with 5% CO2 until a sufficient number of cells were culture in T75 culture bottles. After reaching a confluence of 80% to 90%, the cells were separated using trypsin and counted. Next 100.000 cells were planted in each well of a 6 well plate in replicates, washed and the DMEM solution with 150 μg and 250 μg/ml substance/DMEM and DMEM with no substance as control was added.
(§4) After 48 h and after 72 h 100 μl supernatant of each well was taken, labelled and frozen at −20° degree Celsius. Prior to perform ELISA the medium was depending on the cell line diluted 1:50 or 1:100 with PBS, otherwise the concentration of collagen fibers was too high to be measured.
The media containing the secretion of the different human dermal fibroblasts GM637, UKE1, and HRO159N were collected after 48 h and 72 h treatment. Secretion of pro-collagen 1 was assessed with human pro-collagen I alpha 1 DuoSet ELISA (R&D systems, USA) To prepare the Elisa plate, Human pro-Collagen I α capture antibody was diluted in ELISA plate-coating buffer at 4 μg/mL working concentration. 100 μl of diluted Capture antibody was added to 96-well microplates and incubated over night at room temperature. After three times washing with Wash Buffer, microplates were blocked by adding 300 μl of Reagent Diluent for 1 hour at room temperature. To proceed the ELISA Human pro-collagen I α1 Standards were diluted in Reagent Diluent (range between […]) and 100 μl of standards or conditioned mediums were added to designated wells. Microplates were incubated at room temperature for 2 hours. Human Pro-collagen I α1 Detection Antibody was prepared in Reagent Diluent at […] working concentration and 100 μl of diluted Detection Antibody was applied for 2 hours at room temperature after extensive washing. Then, working solution of Streptavidin-HRP with Reagent Diluent was prepared by diluting 1:40 and added into each well. After 20 minutes at room temperature incubation, microplates were washed and applied with 100 μl of Substrate Solution for 20 minutes followed by Stop Solution after washing. Finally, signals were measured at 450 nm absorbance by PHomo Microplate Reader (Autobio, China) The amount of pro-collagen 1 was quantified by extrapolating the signal into a linear range of a pro-collagen 1 standard curve. Screening compounds were typically tested at concentration of 150 and 250 μg/mL. The dose response data for each compound and the different cell lines were obtained by nonlinear regression analysis using Prism 9 software (GraphPad, La Jolla, USA).

[2] = tested on: human lung fibroblast MRCVI; assay: ELISA of secreted pro-collagen I alpha 1, human lung fibroblast MRCVI; type: cell-based; details: 48 h, 250 μg
Method: as §1, §2
As cell line MRCV1 was used, which is an immortalized cell line originated from human lung fibroblast, bought in 2001.
as §3, with “cell line was” for “cells lines were”, “and” for “and were”
as §4
The medium containing the secretion of the human lung fibroblast MRCVI was collected after 48 h and 72 h treatment. Secretion of pro-collagen 1 was assessed with human pro-collagen I alpha 1 DuoSet ELISA (R&D systems, USA) To prepare the Elisa plate, Human pro-Collagen I α capture antibody was diluted in ELISA plate-coating buffer at 4 μg/mL working concentration. 100 μl of diluted Capture antibody was added to 96-well microplates and incubated over night at room temperature. After three times washing with Wash Buffer, microplates were blocked by adding 300 μl of Reagent Diluent for 1 hour at room temperature. To proceed the ELISA Human pro-collagen I α1 Standards were diluted in Reagent Diluent (range between […]) and 100 μl of standards or conditioned mediums were added to designated wells. Microplates were incubated at room temperature for 2 hours. Human Pro-collagen I α1 Detection Antibody was prepared in Reagent Diluent at […] working concentration and 100 μl of diluted Detection Antibody was applied for 2 hours at room temperature after extensive washing. Then, working solution of Streptavidin-HRP with Reagent Diluent was prepared by diluting 1:40 and added into each well. After 20 minutes at room temperature incubation, microplates were washed and applied with 100 μl of Substrate Solution for 20 minutes followed by Stop Solution after washing. Finally, signals were measured at 450 nm absorbance by PHomo Microplate Reader (Autobio, China) The amount of pro-collagen 1 was quantified by extrapolating the signal into a linear range of a pro-collagen 1 standard curve. Screening compounds were typically tested at concentration of 150 and 250 μg/mL. The dose response data for each compound and the different cell lines were obtained by nonlinear regression analysis using Prism 9 software (GraphPad, La Jolla, USA).

Cc1nnc2c3cscc3cnn12 [Compound 16, 3-Methylthieno[3,4-d][1,2,4]triazolo[4,3-b]pyridazine]
collagen reduction percentage in comparison to the standard (100%) [1]: 79% | collagen reduction percentage in comparison to the standard (100%) [2]: 43%

Cc1nnc2c3ccc(C(F)(F)F)cc3cnn12 [Compound 36, 3-Methyl-8-(trifluoromethyl)-[1,2,4]triazolo[3,4-a]phthalazine]
collagen reduction percentage in comparison to the standard (100%) [2]: 68%

COc1nn2c(C)nnc2c2ccccc12 [Compound 3, 6-Methoxy-3-methyl-1,2,4-triazolo[3,4-a]phthalazine]
collagen reduction percentage in comparison to the standard (100%) [1]: 82% | collagen reduction percentage in comparison to the standard (100%) [2]: 11%

[2H]C([2H])([2H])c1nnc2c3ccccc3cnn12 [Compound 7, 3-D3-Methyl-1,2,4-triazolo[3,4-a]phthalazine]
collagen reduction percentage in comparison to the standard (100%) [1]: 43% | collagen reduction percentage in comparison to the standard (100%) [2]: 9%

c1ccc2c(c1)cnn1nnnc21 [Compound 1, Tetrazolo[5,1-a]phthalazine]
collagen reduction percentage in comparison to the standard (100%) [1]: 57% | collagen reduction percentage in comparison to the standard (100%) [2]: 78%

CC(C)Oc1nn2nnnc2c2c(Cl)cccc12 [Compound 44, 10-chloro-6-isopropoxytetrazolo[5,1-a]phthalazine]
collagen reduction percentage in comparison to the standard (100%) [1]: 72%

c1ccc2c(c1)cnn1cnnc21 [Compound 10, 1,2,4-Triazolo[3,4-a]phthalazine]
collagen reduction percentage in comparison to the standard (100%) [2]: 52%

c1nn2nnnc2c2cscc12 [Compound 17, Tetrazolo[1,5-b]thieno[3,4-d]pyridazine]
collagen reduction percentage in comparison to the standard (100%) [1]: 34% | collagen reduction percentage in comparison to the standard (100%) [2]: 16%
